The text below walks through data of patent publication EP0311163A2, “Use of site-specific modified lipolytic enzymes for the selective hydrolysis of organized lipid structures” (DUPHAR INTERNATIONAL RESEARCH B.V, priority 1987, dated 1989).

What all share (assay): Binding to micellar cis-9-octadecenyl phosphocholine by UV absorption difference spectroscopy
Holding throughout (details): micellar ligand, N = number of lipid monomers per molecule of enzyme, KD = micellar dissociation constant, read-out: N.KD apparent dissociation constant

Assay [1] addresses T1, Porcine pancreatic phospholipase A₂, [ε-Ol-Lys¹¹⁶]-AMPA (Sus scrofa, UniProt P00592).
T1 construct: Conversion of pro-PLA (i.e. Prec) into [ε-Acyl-Lys¹¹⁶]-AMPA; from tissue; host or cells: pig pancreas; chemically amidinated and oleoylated at Lys116
The source says:
The following methods, in which the abbreviations used have the meanings given hereinafter, are used for determining the enzymatic activity, the lipid binding properties and the penetrating capacity of the site-specific mono-acylated phospholipases A2 belonging to the invention: -PLA: phospholipase […]: fully ε-amidinated pro-PLA -AMPA: fully ε-amidinated PLA -t-Boc: tertiary butoxycarbonyl -For: formyl -TFA: trifluoroacetic acid -Tris: tri(hydroxymethyl)amino methane -DFP: diisopropylfluorophosphate -DEAE: diethylamino ethyl -CM: carboxymethyl -FPLC: fast protein liquid chromatography -LC: liquid chromatography -TPCK: […]-2-ethanesulphonic acid -DABITC: dimethylamino azobenzene-iso-thiocyanate. • a. Protein concentrations are determined from the absorption at 280 nm using E 1 cm (1%) of 13.0 for porcine and bovine pancreatic ε-amidinated PLA and the mono-acylated analogs thereof. […] Monolayer experiments are carried out using the zero order through with two compartments and the surface barostat technique for measuring phospholipid hydrolysis ([…] and De Haas, Chem. Phys. Lipids, 10, (1973), 127-136). Calculation of the induction time (τ) is carried out as described by […] et al. J. Biol. Chem. 248 (1973), 4023-4034). Surface tension (π) is measured by means of the plate method by Wilhelmy using a thin platinum plate attached to a Beckman R II C Model LM 600 microbalance. • d. […]

For assay [2], the target named is T2, Bovine pancreatic phospholipase A₂ (PLA), native (Bos taurus, UniProt P00593).
T2 construct: pancreatic pro-PLA's can be purified and converted into the corresponding PLA's; from tissue; host or cells: bovine pancreas
The source says:
(§1) The following methods, in which the abbreviations used have the meanings given hereinafter, are used for determining the enzymatic activity, the lipid binding properties and the penetrating capacity of the site-specific mono-acylated phospholipases A2 belonging to the invention: -PLA: phospholipase […]: fully ε-amidinated pro-PLA -AMPA: fully ε-amidinated PLA -t-Boc: tertiary butoxycarbonyl -For: formyl -TFA: trifluoroacetic acid -Tris: tri(hydroxymethyl)amino methane -DFP: diisopropylfluorophosphate -DEAE: diethylamino ethyl -CM: carboxymethyl -FPLC: fast protein liquid chromatography -LC: liquid chromatography -TPCK: […]-2-ethanesulphonic acid -DABITC: dimethylamino azobenzene-iso-thiocyanate. • a. Protein concentrations are determined from the absorption at 280 nm using E 1 cm (1%) of 13.0 for porcine and bovine pancreatic ε-amidinated PLA and the mono-acylated analogs thereof. […] Monolayer experiments are carried out using the zero order through with two compartments and the surface barostat technique for measuring phospholipid hydrolysis ([…] and De Haas, Chem. Phys. Lipids, 10, (1973), 127-136). Calculation of the induction time (τ) is carried out as described by […] et al. J. Biol. Chem. 248 (1973), 4023-4034). Surface tension (π) is measured by means of the plate method by Wilhelmy using a thin platinum plate attached to a Beckman R II C Model LM 600 microbalance. • d. Kinetic measurements with micellar diC8PC are carried out according to De Haas et al, Biochem. Biophys. Acta, 239, (1971) 252-266. […] From the table it appears that the presence of a covalently attached long chain fatty acid on […] or […] considerably improves the binding of the enzyme to the zwitterionic detergent. A larger chain length of the fatty acid leads to a lower apparent dissociation constant (N.KD), which means a greater affinity to the organized lipid-water interface which is formed by the micellar substrate analog. [table]

For assay [3], the target named is T3, Bovine pancreatic phospholipase A₂, AMPA (fully ε-amidinated PLA) (Bos taurus, UniProt P00593).
T3 construct: fully ε-amidinated according to the method by Wallace and Harris, Biochem. J., 217, (1984), 589-594, and converted into AMPA; from tissue; host or cells: bovine pancreas; chemically amidinated as the pro-enzyme, then converted to the active enzyme
Source text: as §1

The target in assay [4] is T4, Bovine pancreatic phospholipase A₂, [Arg⁶,ε-Pal-Lys¹⁰]-AMPA (Bos taurus, UniProt P00593, N28R).
T4 construct: Conversion of fully ε-amidinated bovine pancreatic AMPrec in [Arg⁶, ε-Pal-Lys¹⁰]-AMPA; from tissue; host or cells: bovine pancreas; semisynthetic: amidinated fragment 11-123 re-elongated with Pal-Lys, Ile, Met and Ala.Leu.Trp.Gln.Phe.Arg.Gly
Source text: as §1

The target of assay [5] is T5, Bovine pancreatic phospholipase A₂, [Arg⁶]-AMPA (Bos taurus, UniProt P00593, N28R).
T5 construct: fully ε-amidinated according to the method by Wallace and Harris, Biochem. J., 217, (1984), 589-594, and converted into AMPA; from tissue; host or cells: bovine pancreas
Source text: as §1

Assay [6] addresses T6, Porcine pancreatic phospholipase A₂ (PLA), native (Sus scrofa, UniProt P00592).
T6 construct: pancreatic pro-PLA's can be purified and converted into the corresponding PLA's; from tissue; host or cells: pig pancreas
Source text: as §1

Assay [7] addresses T7, Porcine pancreatic phospholipase A₂, AMPA (fully ε-amidinated PLA) (Sus scrofa, UniProt P00592).
T7 construct: fully ε-amidinated according to the method by Wallace and Harris, Biochem. J., 217, (1984), 589-594, and converted into AMPA; from tissue; host or cells: pig pancreas; chemically amidinated as the pro-enzyme, then converted to the active enzyme
Source text: as §1

Assay [8] deals with T8, Porcine pancreatic phospholipase A₂, [ε-Ac-Lys¹¹⁶]-AMPA (Sus scrofa, UniProt P00592).
T8 construct: Conversion of pro-PLA (i.e. Prec) into [ε-Acyl-Lys¹¹⁶]-AMPA; from tissue; host or cells: pig pancreas; chemically amidinated and acetylated at Lys116
Source text: as §1

Assay [9] concerns the target T9, Porcine pancreatic phospholipase A₂, [ε-Cap-Lys¹¹⁶]-AMPA (Sus scrofa, UniProt P00592).
T9 construct: Conversion of pro-PLA (i.e. Prec) into [ε-Acyl-Lys¹¹⁶]-AMPA; from tissue; host or cells: pig pancreas; chemically amidinated and caprinoylated at Lys116
Source text: as §1

The target in assay [10] is T10, Porcine pancreatic phospholipase A₂, [ε-Lau-Lys¹¹⁶]-AMPA (Sus scrofa, UniProt P00592).
T10 construct: Conversion of pro-PLA (i.e. Prec) into [ε-Acyl-Lys¹¹⁶]-AMPA; from tissue; host or cells: pig pancreas; chemically amidinated and lauroylated at Lys116
Source text: as §1

Assay [11] concerns the target T11, Porcine pancreatic phospholipase A₂, [ε-Mal-Lys¹¹⁶]-AMPA (Sus scrofa, UniProt P00592).
T11 construct: Conversion of pro-PLA (i.e. Prec) into [ε-Acyl-Lys¹¹⁶]-AMPA; from tissue; host or cells: pig pancreas; chemically amidinated and maleylated at Lys116
Source text: as §1

In assay [12] the target is T12, Porcine pancreatic phospholipase A₂, [ε-NH₂-Lys¹¹⁶]-AMPA (Sus scrofa, UniProt P00592).
T12 construct: incubated with 0.1% (wt/wt) trypsin at pH 8.0 (10 mM Tris, 5 mM Ca²⁺) in order to obtain [ε-NH₂-Lys-]AMPA; from tissue; host or cells: pig pancreas; partial amidination in the presence of diC8GS, then trypsin conversion of the pro-enzyme
Source text: as §1

Assay [13] concerns the target T13, Porcine pancreatic phospholipase A₂, [ε-Pal-Lys¹¹⁶]-AMPA (Sus scrofa, UniProt P00592).
T13 construct: Conversion of pro-PLA (i.e. Prec) into [ε-Acyl-Lys¹¹⁶]-AMPA; from tissue; host or cells: pig pancreas; chemically amidinated and palmitoylated at Lys116
Source text: as §1

pKd: −log10 of the molar value.

T2 sequence (P00593 23-145): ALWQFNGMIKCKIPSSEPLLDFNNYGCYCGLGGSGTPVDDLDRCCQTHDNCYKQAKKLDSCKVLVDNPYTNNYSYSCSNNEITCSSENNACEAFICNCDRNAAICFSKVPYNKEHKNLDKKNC
T3 sequence (P00593 23-145): as above
T10 sequence (P00592 23-146): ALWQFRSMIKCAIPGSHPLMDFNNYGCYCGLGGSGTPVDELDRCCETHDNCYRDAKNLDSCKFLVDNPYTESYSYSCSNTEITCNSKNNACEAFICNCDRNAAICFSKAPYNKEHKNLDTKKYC
T8 sequence (P00592 23-146): as above
T12 sequence (P00592 23-146): as above
T7 sequence (P00592 23-146): as above
T6 sequence (P00592 23-146): as above
T11 sequence (P00592 23-146): as above
T9 sequence (P00592 23-146): as above
T1 sequence (P00592 23-146): as above
T13 sequence (P00592 23-146): as above
T4 sequence (P00593 23-145 N28R): as the sequence (P00593 23-145) above, with N6R counted along it
T5 sequence (P00593 23-145 N28R): as the sequence (P00593 23-145) above, with N6R counted along it

Usually pKd stands for the negative decadic logarithm of the Kd, by convention in mol/L. For the molecule `CCCCCCCC/C=C\CCCCCCCCOP(=O)([O-])OCC[N+](C)(C)C` [cis-9-octadecenylphosphocholine], the pKd was 4.74 in assay [1]; 3.18 in assay [2]; 2.49 in [3]; 4.70 in [4]; 3.92 in [5]; 4.24 in assay [6]. The pKd in assay [7] is 4.12; in [8] it was 4.42; in assay [9] it was 4.48; in assay [10], 4.54; in assay [11] it was 4.37; in assay [12], 4.36. Further, the pKd in assay [13] is 4.92.
